Test: in vitro
Conditions: human, hek293t cells

SMILES	viability at 48 h, 25 µM [%]
O=C(CCl)NCc1ccccc1OC1CCCC1 [6-C14, 2-chloro-N-{[2-(cyclopentyloxy)phenyl]methyl}acetamide]	2.1
CC(Cl)C(=O)N(C(C)CS(C)(=O)=O)C1CC1 (stereo not drawn) [6-L17, 2-chloro-N-cyclopropyl-N-(1-methanesulfonylpropan-2-yl)propanamide]	112
C=CC(=O)Nc1cn(CCC)cn1 [3-B10, N-(1-propyl-1H-imidazol-4-yl)prop-2-enamide]	91.1
O=C(CCl)N1CCCC1c1ccccc1 (stereo not drawn) [6-M19, 2-chloro-1-(2-phenylpyrrolidin-1-yl)ethan-1-one]	0.923
N#CC(=Cc1sc2ccccc2c1Cl)C(=O)NC1CC1 [9-C18, 3-(3-chloro-1-benzothiophen-2-yl)-2-cyano-N-cyclopropylprop-2-enamide]	86.4
C=CC(=O)N1CC(OCc2nc(C)no2)C1 [1-P18, 1-{3-[(3-methyl-1,2,4-oxadiazol-5-yl)methoxy]azetidin-1-yl}prop-2-en-1-one]	67.7
CC(Cl)C(=O)NCc1cccc(N2C(=O)NC3(CCCC3)C2=O)c1 (stereo not drawn) [7-O18, 2-chloro-N-[(3-{2,4-dioxo-1,3-diazaspiro[4.4]nonan-3-yl}phenyl)methyl]propanamide]	103
N#CC(=Cc1ccsc1)C(=O)Nc1ccc(Cl)cc1 [9-I06, N-(4-chlorophenyl)-2-cyano-3-(thiophen-3-yl)prop-2-enamide]	112
CC(Cl)C(=O)N1CCc2ncccc2C1 (stereo not drawn) [7-I19, 2-chloro-1-(5,6,7,8-tetrahydro-1,6-naphthyridin-6-yl)propan-1-one]	98.1
CCCCNC(=O)C(C#N)=Cc1c(Cl)cccc1Cl [9-J11, N-butyl-2-cyano-3-(2,6-dichlorophenyl)prop-2-enamide]	25.1
Cn1cc(C=C(C#N)C(=O)NC2CCCC2)c(-c2ccncc2)n1 [9-L16, 2-cyano-N-cyclopentyl-3-[1-methyl-3-(pyridin-4-yl)-1H-pyrazol-4-yl]prop-2-enamide]	119
C=CC(=O)N1CCC(C(=O)OCC)(S(C)(=O)=O)CC1 [3-H04, ethyl 4-methanesulfonyl-1-(prop-2-enoyl)piperidine-4-carboxylate]	93.3
C=CC(=O)NCC1(c2ccnn2C)CC1 [2-P15, N-{[1-(1-methyl-1H-pyrazol-5-yl)cyclopropyl]methyl}prop-2-enamide]	78.8
CC(Cl)C(=O)Nc1nc(-c2cccc([N+](=O)[O-])c2)cs1 (stereo not drawn) [4-E08, 2-chloro-N-[4-(3-nitrophenyl)-1,3-thiazol-2-yl]propanamide]	59.7
C=CC(=O)Nc1ccc(F)c(-n2nnnc2C)c1 [2-K11, N-[4-fluoro-3-(5-methyl-1H-1,2,3,4-tetrazol-1-yl)phenyl]prop-2-enamide]	195
C=CC(=O)N1CC2(CCCC2)CC1CO (stereo not drawn) [2-I19, 1-[3-(hydroxymethyl)-2-azaspiro[4.4]nonan-2-yl]prop-2-en-1-one]	82.4
CC(Cl)C(=O)N1CCNC(=O)C1c1cccs1 (stereo not drawn) [6-J17, 4-(2-chloropropanoyl)-3-(thiophen-2-yl)piperazin-2-one]	106
N#CC(=Cc1ccccc1[N+](=O)[O-])C(=O)Nc1ccc2c(c1)OCCO2 [9-O20, 2-cyano-N-(2,3-dihydro-1,4-benzodioxin-6-yl)-3-(2-nitrophenyl)prop-2-enamide]	108
CC(Cl)C(=O)N1CCN(c2nc3ccccc3o2)C(C)C1 (stereo not drawn) [7-K22, 1-[4-(1,3-benzoxazol-2-yl)-3-methylpiperazin-1-yl]-2-chloropropan-1-one]	76.1
Cc1ccc(NC(=O)C(C#N)=Cc2ccc3c(c2)OCCO3)c(C)c1 [9-H03, 2-cyano-3-(2,3-dihydro-1,4-benzodioxin-6-yl)-N-(2,4-dimethylphenyl)prop-2-enamide]	107
CN(CC(=O)Nc1ccc(F)cc1)C(=O)CCl [4-B05, 2-chloro-N-{[(4-fluorophenyl)carbamoyl]methyl}-N-methylacetamide]	0.41
C=CC(=O)NCc1ccc(C(=O)N2CCC(NC(C)=O)CC2)cc1 [2-A12, N-{[4-(4-acetamidopiperidine-1-carbonyl)phenyl]methyl}prop-2-enamide]	90.5
O=C(CCl)N1c2ccc(F)cc2NC(=O)C12CCC2 [5-K09, 1'-(2-chloroacetyl)-6'-fluoro-3',4'-dihydro-1'H-spiro[cyclobutane-1,2'-quinoxalin]-3'-one]	0.346
Cc1cc(C)c(NC(=O)C(C)Cl)c(C)c1 (stereo not drawn) [5-K15, 2-chloro-N-(2,4,6-trimethylphenyl)propanamide]	140
C=CC(=O)N1CCCC(S(=O)(=O)NC)C1 (stereo not drawn) [3-D17, N-methyl-1-(prop-2-enoyl)piperidine-3-sulfonamide]	67.5
N#CC(=Cc1ccc(F)cc1)C(=O)Nc1ccc(C(=O)O)cc1 [8-L07, 4-[2-cyano-3-(4-fluorophenyl)prop-2-enamido]benzoic acid]	119
CSc1cccc(-n2c(C)cc(C(=O)CCl)c2C)c1 [10-J16, 2-chloro-1-{2,5-dimethyl-1-[3-(methylsulfanyl)phenyl]-1H-pyrrol-3-yl}ethan-1-one]	0.898

SMILES	viability at 48 h, 25 µM [%]
O=C(CCl)Nc1cc2c(cc1[N+](=O)[O-])OCCCO2 [4-O05, 2-chloro-N-(8-nitro-3,4-dihydro-2H-1,5-benzodioxepin-7-yl)acetamide]	103
CC(Cl)C(=O)Nc1cccc(-c2ncc3n2CCCC3)c1 (stereo not drawn) [5-F19, 2-chloro-N-(3-{5H,6H,7H,8H-imidazo[1,5-a]pyridin-3-yl}phenyl)propanamide]	95.8
C=CC(=O)NCC1(c2ccccc2Cl)CCCCC1 [1-A17, N-{[1-(2-chlorophenyl)cyclohexyl]methyl}prop-2-enamide]	64.2
Cc1ncccc1OCC1CCCN1C(=O)C(C)Cl (stereo not drawn) [7-C18, 2-chloro-1-(2-{[(2-methylpyridin-3-yl)oxy]methyl}pyrrolidin-1-yl)propan-1-one]	76.6
C=CC(=O)N1CCC(C(=O)NCc2nc(C)c(C)s2)CC1 [3-B12, N-[(4,5-dimethyl-1,3-thiazol-2-yl)methyl]-1-(prop-2-enoyl)piperidine-4-carboxamide]	87.5
C=CC(=O)NCCCn1cnc2c1CCCC2 [3-K20, N-[3-(4,5,6,7-tetrahydro-1H-1,3-benzodiazol-1-yl)propyl]prop-2-enamide]	101
C=CC(=O)NCc1ccc(C(=O)N2CCOC3(CCCC3)C2)cc1 [3-B05, N-[(4-{6-oxa-9-azaspiro[4.5]decane-9-carbonyl}phenyl)methyl]prop-2-enamide]	69.9
O=C(CCc1ccccc1)NC1CCN(C(=O)CCl)CC1 [5-L08, N-[1-(2-chloroacetyl)piperidin-4-yl]-3-phenylpropanamide]	1.18
C=CCNC(=O)C(C#N)=Cc1cccc(C)c1 [8-D05, 2-cyano-3-(3-methylphenyl)-N-(prop-2-en-1-yl)prop-2-enamide]	102
CC(Cl)C(=O)N(C)c1ccccc1 (stereo not drawn) [5-D06, 2-chloro-N-methyl-N-phenylpropanamide]	102
C=CC(=O)NCC1CCc2cccnc21 (stereo not drawn) [3-M07, N-({5H,6H,7H-cyclopenta[b]pyridin-7-yl}methyl)prop-2-enamide]	47.8
C=CC(=O)NCc1ccnn1CC(F)(F)F [1-O18, N-{[1-(2,2,2-trifluoroethyl)-1H-pyrazol-5-yl]methyl}prop-2-enamide]	168
N#CC(=Cc1ccc(Cl)c([N+](=O)[O-])c1)C(=O)N1CCCC1 [9-N05, 3-(4-chloro-3-nitrophenyl)-2-(pyrrolidine-1-carbonyl)prop-2-enenitrile]	5.4
C=CC(=O)Nc1cc(S(=O)(=O)N2CCCCCC2)ccc1OC [1-A15, N-[5-(azepane-1-sulfonyl)-2-methoxyphenyl]prop-2-enamide]	1.58
CN(CCNC(=O)CCl)S(=O)(=O)c1cccs1 [6-H11, 2-chloro-N-[2-(N-methylthiophene-2-sulfonamido)ethyl]acetamide]	11.1
C=CC(=O)Nc1ccccc1CCC(N)=O [1-A18, N-[2-(2-carbamoylethyl)phenyl]prop-2-enamide]	125
O=C(CCl)NSc1ccc([N+](=O)[O-])cc1 [4-P13, 2-chloro-N-[(4-nitrophenyl)sulfanyl]acetamide]	3.88
O=C(CCl)c1c[nH]c2ccncc12 [10-K05, 2-chloro-1-{1H-pyrrolo[3,2-c]pyridin-3-yl}ethan-1-one]	1.3
O=C1CCc2cc(C(=O)CCl)ccc2N1 [10-M03, 6-(2-chloroacetyl)-1,2,3,4-tetrahydroquinolin-2-one]	1.31
C=CC(=O)Nc1cnn(-c2ccncc2)c1C(F)F [1-O09, N-[5-(difluoromethyl)-1-(pyridin-4-yl)-1H-pyrazol-4-yl]prop-2-enamide]	67.8
Cc1ccc(C)c(C=C(C#N)C(=O)Nc2nccs2)c1 [9-N13, 2-cyano-3-(2,5-dimethylphenyl)-N-(1,3-thiazol-2-yl)prop-2-enamide]	126
C=CC(=O)NC(c1nccs1)C(F)(F)F (stereo not drawn) [2-N07, N-[2,2,2-trifluoro-1-(1,3-thiazol-2-yl)ethyl]prop-2-enamide]	84.1
C=CC(=O)NC1CCOCC1 [2-G17, N-(oxan-4-yl)prop-2-enamide]	93.3
C=CC(=O)N1CCC(O)(c2ccccc2)CC1 [1-E15, 1-(4-hydroxy-4-phenylpiperidin-1-yl)prop-2-en-1-one]	79.8
CCN(C(=O)CCl)c1cccc2ccccc12 [5-B08, 2-chloro-N-ethyl-N-(naphthalen-1-yl)acetamide]	0.156
C=CC(=O)N(C)CC(=O)N1CCN(C(=O)C2CCCCC2)CC1 [3-O10, N-[2-(4-cyclohexanecarbonylpiperazin-1-yl)-2-oxoethyl]-N-methylprop-2-enamide]	93.8
CN(CC(=O)Nc1ccccc1C(F)(F)F)C(=O)CCl [4-K05, 2-chloro-N-methyl-N-({[2-(trifluoromethyl)phenyl]carbamoyl}methyl)acetamide]	0.506

Source: PMC11995724, “Antibiotic target discovery by integrated phenotypic and activity-based profiling of electrophilic fragments” (Cell chemical biology, 2025)
